The subject of one data set is Sal typhosa. Description: In vitro minimum inhibitory concentration (MIC), tube dilution test. Type of data set: cell-based. The settings on record: read-out: Minimal Inhibitory Test Conens. (MIC). As for the experimental part: A. In vitro: mimimum inhibitory concentration (MIC)
The compound was tested in a standard bacteriological tube dilution test for MIC for a variety of bacteria. Stock cultures of the bacteria listed in Table 1 were grown in bacterial culture media at 37° C. overnight and diluted in culture tubes to a previously determined concentration proper for the test. The compound was added to result in final concentrations of 10, 2, 0.4 and 0.08 μg/ml. These were incubated for 18 hours at 37° C. and then observed to determine if growth of bacteria had occurred. The lowest concentration of the compound that inhibited bacterial growth in the MIC.
*brain-heart infusion broth, 20hour incubation at 37° C.

The nature of data set [1]: General pharmacology screen in rats. The settings on record: rat, in vivo.
In another data set the test system is Escherichia coli. Description: Escherichia coli (mouse infections). Type of data set: in vivo. The settings on record: female white mice, oral, at infection and again 4 hours after, 72 hours, Reed-Muench, read-out: ED50 (dose effective to save 50% of the mice). The procedure: 1. Escherichia coli (mouse infections)
(§1) Female white mice weighing approximately 20 grams were infected by injecting a sufficient number of E. coli cells intraperitoneally to cause 85-100% fatalities within 3 days after infection. Groups of 12 such infected mice were dosed orally by intubation with the compound suspended in water to equal 40, 20, 10 and 5 mg/kg at the time of infection and again 4 hours after infection time. […] The dose effective to save 50% of the mice (ED50) was calculated by the Reed-Muench method (Reed, L. J. Muench, H. A Single Method of Estimating 50% Endpoints, Am. J. Hygiene 27, p. 493-497 (1938)).

Another data set deals with Staphylococcus aureus. Description: Staphylococcus aureus (mouse infections). The settings on record: female white mice, oral, at infection and again 4 hours after, 72 hours, Reed-Muench, read-out: ED50 (dose effective to save 50% of the mice). It is filed as in vivo. The procedure:
as §1
2. Staphylococcus aureus (mouse infections)
The same methods as the previous test were used, except the compound concentrations were 400, 200, 100 and 50 mg/kg. The ED50 's appear in Table 2.

For another data set, the system named is bacteria. The settings on record: Ronald et al., New England Journal of Medicine, 1966; cited from earlier work.
The conditions of data set [2]: cited from earlier work; for undesirable side effects: Cox, Delaware Medical Journal, 1970.
A further data set has as its system mice. Description: General pharmacology screen in mice. The conditions noted are these: summary in words of Tables 3 and 4 (mice and rats). The procedure:
17- to 24-hour fasted female white mice, 16-20 g. each, or rats, 70-90 g. each were dosed orally with test drug (or standard) at 0, 4, 12, 36, 108 or 324 mg./kg.
Ataxia--The mouse or rat was placed upright on the bench top facing away from the observer. Motor incoordination manifested by abnormal gait or lack of precision during purposive movements constituted ataxia.
Vertical Bar--The mouse or rat was swung by the tail with head pointing down to a 0.5" diameter (1" diameter for rats), 30.5 cm long vertical rod covered with adhesive tape. Inability to grip the rod with the front paws, sliding or failure to move after being prodded constituted vertical bar loss.
Body Temperature--The rectal temperatures of the mice and rats were taken using a KC-1 thermocouple probe.
Excitement and Irritability--Increased spontaneous motor activity, running and jumping prior to handling were recorded as excitement. Upon handling, jumping, jerking, biting and squeaking were recorded as irritability.
Anorexia--At the end of the 0.5 hour testing period, each mouse was transferred to an individual, clear, Lucite® compartment (13.3 cm×12.7 cm×12.7 cm) with a 0.64 cm×0.64 cm wire mesh floor. Inside each compartment there was a section of a black Lucite® bar [13 cm×1.2 cm×1.2 cm) with ten spot depressions (0.8 cm diameter) each containing 0.05 ml. of 50% sweetened condensed milk. 30 Minutes later the number of milk spots consumed was counted. 5 Mice per drug dose can drink a maximum of 50 spots (2.5 ml. of milk). 15 or fewer spots consumed by 5 mice constituted anorexia.

Setting [3] is: po, doses given in mg./kg, read-out: ED50 Ataxia.
[4] abbreviates: po, doses given in mg./kg, read-out: ED50 Excitation.
Setting [5] is: po, doses given in mg./kg, read-out: ED50 Irritability.
Where [6] appears, read: po, rectal temperature, doses given in mg./kg, read-out: ED50 Hypertherm.
The mark [7] stands for this setting: po, rectal temperature, doses given in mg./kg, read-out: ED50 Hypotherm.
[8] abbreviates: po, vertical bar loss, doses given in mg./kg, read-out: ED50 Vert. Bar.
Setting [9] is: oral, doses given in mg./kg, read-out: ED50 24-Hour Mort.

Converted amounts (≈) assume the structure as drawn. Where two headings read alike, the source gives them in different places.

The MIC is the lowest concentration found to suppress growth. The term ED50 denotes the midpoint of the dose-response relation.

For `O=C(O)c1cn(C(F)F)c2cc3c(cc2c1=O)OCO3` [DFMQ, 1-difluoromethyl-6,7-methylenedioxy-1,4-dihydro-4-oxo-3-quinolinecarboxylic acid], the MIC in the data set on Sal typhosa (20 h) is less than 0.08 µg/mL. The compound further registered an LD50 at 24 h in data set [1] (po) of more than 324 mg/kg. In addition, the TD50 in data set [1] (setting [3]), in data set [1] (setting [4]), in data set [1] (setting [5]), in data set [1] (setting [6]), in data set [1] (setting [7]) and in data set [1] (setting [8]) was more than 324 mg/kg throughout. Besides, the figures for the median effective dose (ED50) with Escherichia coli and with Staphylococcus aureus were 9.9 mg/kg and 149 mg/kg, respectively.

Regarding `CCn1cc(C(=O)O)c(=O)c2ccc(C)nc21` [Nalidixic Acid, nalidixic acid], the bacterial resistance entry in the data set on bacteria is “tendency to rapidly evoke bacterial resistance”. In data set [2], the undesirable side effects entry is listed as “a relatively high incidence of side effects”. Besides, the LD50 at 24 h in data set [1] (setting [9]) is more than 324 mg/kg. Besides, the TD50 in data set [1] (setting [3]) was 187 mg/kg; in data set [1] (setting [4]), more than 324 mg/kg; in data set [1] (setting [5]) it was more than 324 mg/kg; in data set [1] (setting [6]) it was more than 324 mg/kg; in data set [1] (setting [7]), more than 324 mg/kg; in data set [1] (setting [8]) it was 360 mg/kg. In addition, the “untoward effects in the general pharmacology screen” value with mice is “produced some ataxia, and anorexia”.

For `CCn1cc(C(=O)O)c(=O)c2cc3c(cc21)OCO3` [Oxolinic Acid, oxolinic acid], the undesirable side effects result in data set [2] is reported as “a high incidence of undesirable side effects”. Further, the “toxicity, use in therapy of urinary tract infections” value in data set [2] (Kershaw and Leigh, 1975) is on record as “because of toxicity, "it should not be used as a first-line drug in the therapy of urinary tract infections."”. In addition, the MIC with Sal typhosa (Sal typhosa (02D), brain-heart infusion broth, 20hour incubation at 37° C.) was determined as 0.4 µg/mL (≈ 1.53 µM). Moreover, the LD50 at 24 h in data set [1] (setting [9]) was more than 324 mg/kg. Besides, the TD50 in data set [1] (setting [3]) was 97 mg/kg; in data set [1] (setting [4]), 62 mg/kg; in data set [1] (setting [5]), more than 324 mg/kg; in data set [1] (setting [6]) it was 121 mg/kg; in data set [1] (setting [7]), more than 324 mg/kg; in data set [1] (setting [8]), 187 mg/kg. In addition, in the data set on mice, the “untoward effects in the general pharmacology screen” value is “produced ataxia, anorexia, excitation, and irritability”.

(Values after patent US4216324A, “1-Difluoromethyl-6,7-methylenedioxy-1,4-dihyd ro-4-oxo-3-quinolinecarboxylic acid” (E. I. Du Pont de Nemours and Company, priority 1978, dated 1980).)
